Test results from ChEMBL document CHEMBL3603752, “Discovery of N-(4-aryl-5-aryloxy-thiazol-2-yl)-amides as potent RORγt inverse agonists” (Bioorg Med Chem, 2015).

Tests used:
[1] = target: T1, Nuclear receptor ROR-gamma (Mus musculus, UniProt P51450); test: Inverse agonist activity at RORgammat in mouse Th17 cells assessed as inhibition of IL-17 production after 3 days by ELISA; format: cell-based
T1 sequence (P51450 whole entry): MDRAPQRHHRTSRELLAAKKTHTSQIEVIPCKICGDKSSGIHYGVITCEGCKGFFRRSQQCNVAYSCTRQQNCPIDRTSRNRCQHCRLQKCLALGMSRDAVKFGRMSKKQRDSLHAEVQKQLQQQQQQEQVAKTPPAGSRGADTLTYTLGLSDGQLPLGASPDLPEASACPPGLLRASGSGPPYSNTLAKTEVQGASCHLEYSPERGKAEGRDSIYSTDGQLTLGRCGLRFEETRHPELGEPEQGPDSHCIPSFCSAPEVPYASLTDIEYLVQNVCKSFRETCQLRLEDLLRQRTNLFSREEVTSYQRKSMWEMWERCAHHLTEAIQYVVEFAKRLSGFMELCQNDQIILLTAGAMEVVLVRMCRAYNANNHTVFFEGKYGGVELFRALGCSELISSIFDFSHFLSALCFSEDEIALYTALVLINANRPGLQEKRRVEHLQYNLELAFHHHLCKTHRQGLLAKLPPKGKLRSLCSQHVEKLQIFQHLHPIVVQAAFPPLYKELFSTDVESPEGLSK

Liver = test: Intrinsic clearance in mouse liver microsomes at 0.5 microM by LC/MS/MS analysis; format: ADME
[2] = target: T2, Nuclear receptor ROR-gamma (Homo sapiens, UniProt P51449); test: Agonist activity at APC-labeled RORgammat-LBD (unknown origin) assessed as induction of europium-labeled SRC1 recruitment after 1 hr by dual FRET analysis
T2 sequence (P51449 whole entry): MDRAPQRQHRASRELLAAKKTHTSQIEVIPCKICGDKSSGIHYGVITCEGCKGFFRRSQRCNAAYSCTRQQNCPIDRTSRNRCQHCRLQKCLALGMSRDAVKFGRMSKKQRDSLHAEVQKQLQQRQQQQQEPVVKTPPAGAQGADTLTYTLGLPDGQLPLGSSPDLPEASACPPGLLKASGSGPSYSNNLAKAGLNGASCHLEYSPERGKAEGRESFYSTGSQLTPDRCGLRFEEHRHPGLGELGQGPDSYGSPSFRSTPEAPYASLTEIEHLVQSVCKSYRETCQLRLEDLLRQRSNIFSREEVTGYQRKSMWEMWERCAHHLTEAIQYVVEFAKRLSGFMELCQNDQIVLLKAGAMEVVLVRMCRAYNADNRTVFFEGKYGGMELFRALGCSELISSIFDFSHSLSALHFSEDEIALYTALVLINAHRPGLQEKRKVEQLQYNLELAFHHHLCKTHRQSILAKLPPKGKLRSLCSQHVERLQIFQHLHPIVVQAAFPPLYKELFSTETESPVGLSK

[3] = target: T2, Nuclear receptor ROR-gamma; test: Inverse agonist activity at APC-labeled RORgammat-LBD (unknown origin) assessed as inhibition of N-(2-chloro-6-fluorobenzyl)-N-((2'-methoxy-[1,1'-biphenyl]-4-yl)-methyl)benzenesulfonamide-induced europium-labeled SRC1 recruitment after 1 hr by FRET analysis

IC50 [1] [nM]	CLH (Liver) [mL/min/g]	EC50 [2] [nM]	IC50 [3] [nM]	SMILES
158	< 0.36	–	–	CCS(=O)(=O)c1ccc(CC(=O)Nc2nc(-c3cccc(C#N)c3)c(Oc3ccc(Cl)cc3C(F)(F)F)s2)cc1
–	–	3160	158	CCS(=O)(=O)c1ccc(CC(=O)Nc2nc(-c3cc(Cl)ccc3Cl)c(-c3ccccc3)s2)cc1
1580	0.46	–	–	CCS(=O)(=O)c1ccc(CC(=O)Nc2nc(-c3ccccc3)c(Oc3ccccc3Cl)s2)cc1
1000	< 0.36	–	–	CCS(=O)(=O)c1ccc(CC(=O)Nc2nc(-c3ccccc3)c(Oc3ccccc3C(F)(F)F)s2)cc1
251	2.37	–	–	CCS(=O)(=O)c1ccc(CC(=O)Nc2nc(-c3ccccc3)c(Oc3ccccc3OC)s2)cc1
1580	< 0.36	–	–	CCS(=O)(=O)c1ccc(CC(=O)Nc2nc(-c3ccccc3)c(Oc3ccc(Cl)cc3)s2)cc1
631	< 0.36	–	–	CCS(=O)(=O)c1ccc(CC(=O)Nc2nc(-c3ccccc3)c(Oc3ccc(C(F)(F)F)cc3)s2)cc1
> 10000	0.39	–	–	CCS(=O)(=O)c1ccc(CC(=O)Nc2nc(-c3ccccc3)c(Oc3ccc(OC)cc3)s2)cc1
3980	< 0.36	–	–	CCS(=O)(=O)c1ccc(CC(=O)Nc2nc(-c3ccc(Cl)cc3)c(Oc3ccccc3)s2)cc1
1580	–	–	–	CCS(=O)(=O)c1ccc(CC(=O)Nc2nc(-c3cccc(Cl)c3)c(Oc3ccccc3)s2)cc1
2000	< 0.36	–	–	CCS(=O)(=O)c1ccc(CC(=O)Nc2nc(-c3cccc(Cl)c3)c(Oc3ccccc3C(F)(F)F)s2)cc1
251	< 0.36	–	–	CCS(=O)(=O)c1ccc(CC(=O)Nc2nc(-c3cccc(C#N)c3)c(Oc3ccccc3C(F)(F)F)s2)cc1
398	< 0.36	–	–	CCS(=O)(=O)c1ccc(CC(=O)Nc2nc(-c3cccc(C#N)c3)c(Oc3ccc(C(F)(F)F)cc3Cl)s2)cc1
